From paper PMC8279409, “Novel Mixed NOP/Opioid Receptor Peptide Agonists” (Journal of Medicinal Chemistry, 2021)
Like-named read-outs stand apart in the source and are kept apart here.

Tests used:
human NOP receptor [1] = molecular target: T1, human NOP receptor (Homo sapiens, UniProt P41146); assay: Calcium mobilization, NOP receptor; type: cell-based; conditions: for NOP pEC50 (CL95%): CHO cells coexpressing human NOP and Gαqi5, Fluo-4 AM, 37 °C, mean of at least three experiments in duplicate, CL95% in brackets; for NOP Emax ± S.E.M.: mean ± SEM of at least three experiments in duplicate
T1 construct: expressed in transfected cells; host or cells: CHO cells stably coexpressing the receptor and chimeric Gαqi5
T1 sequence (P41146 whole entry): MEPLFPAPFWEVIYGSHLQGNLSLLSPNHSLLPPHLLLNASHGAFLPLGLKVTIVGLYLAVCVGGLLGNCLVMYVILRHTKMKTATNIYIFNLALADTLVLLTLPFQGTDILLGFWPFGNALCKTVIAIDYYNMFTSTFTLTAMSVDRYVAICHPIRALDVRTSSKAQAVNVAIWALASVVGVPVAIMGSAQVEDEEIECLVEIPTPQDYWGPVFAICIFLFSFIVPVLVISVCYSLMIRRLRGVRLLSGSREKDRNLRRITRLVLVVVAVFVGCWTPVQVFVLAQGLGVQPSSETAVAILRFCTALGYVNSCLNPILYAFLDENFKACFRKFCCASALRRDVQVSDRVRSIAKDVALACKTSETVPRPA
Outline: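 CHO cells stably co-expressing the receptor and chimeric Gαqi5 were loaded with 3 μM Fluo-4 AM with probenecid for 30 min at 37 °C. Fluorescence was read on compound addition at 37 °C as maximal change over baseline.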

human mu receptor [2] = molecular target: T2, human mu receptor (Homo sapiens, UniProt P35372); assay: Dynamic mass redistribution (DMR), mu receptor; type: cell-based; conditions: for mu Emax ± S.E.M.: maximum picometer (pm) modification (peak), mean ± SEM of at least three experiments in duplicate
T2 construct: expressed in transfected cells; host or cells: CHO cells stably coexpressing the receptor and chimeric Gαqi5
T2 sequence (P35372 whole entry): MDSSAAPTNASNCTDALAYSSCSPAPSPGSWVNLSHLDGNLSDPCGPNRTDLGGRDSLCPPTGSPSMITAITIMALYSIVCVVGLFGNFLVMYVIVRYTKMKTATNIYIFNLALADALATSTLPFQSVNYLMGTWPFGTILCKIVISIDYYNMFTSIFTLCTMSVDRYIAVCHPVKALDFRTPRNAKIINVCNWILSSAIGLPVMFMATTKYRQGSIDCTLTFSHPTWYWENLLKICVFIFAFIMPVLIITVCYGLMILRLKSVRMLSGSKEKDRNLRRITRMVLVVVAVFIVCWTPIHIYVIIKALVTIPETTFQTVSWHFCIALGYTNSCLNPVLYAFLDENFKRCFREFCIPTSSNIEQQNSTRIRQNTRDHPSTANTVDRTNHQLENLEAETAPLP
Protocol: (§1) CHO cells stably expressing the human NOP and mu receptors were kindly provided by D.G. Lambert (University of Leicester, UK). Cells were cultured in DMEM/F-12 medium supplemented with 10% FBS, 100 U/mL penicillin, 100 μg/mL streptomycin, and 2 mmol/L L-glutamine. The medium was supplemented with 400 μg/mL G418 to maintain expression. Cells were cultured at 37 °C in 5% CO2 humidified air. For DMR measurements, the label-free EnSight Multimode Plate Reader (Perkin Elmer, MA, US) was used. Cells were seeded 15,000 cells/well in a volume of 30 μL onto fibronectin-coated 384-well DMR microplates and cultured for 20 h to obtain confluent monolayers. Cells were starved in the assay buffer (HBSS with 20 mM HEPES, 0.01% BSA fraction V) for 90 min before the test. Serial dilutions were made in the assay buffer. After reading the baseline, compounds were added in a volume of 10 μL; then, DMR changes were recorded for 60 min. Responses were described as picometer (pm) shifts over time (sec) following subtraction of values from vehicle-treated wells. Maximum picometer (pm) modification (peak) was used to generate concentration response curves. All the experiments were carried out at 37 °C.
The pharmacological terminology adopted in this paper is consistent with IUPHAR recommendations.[59] All data are expressed as the mean ± standard error of the mean (SEM) of at least three experiments performed in duplicate. […] Concentration-response curves to agonists were fitted to the classical four-parameter logistic nonlinear regression model:
Effect = Baseline + (Emax – Baseline)/(1 + 10^(LogEC50 – Log[compound]) × Hillslope). Curve fitting was performed using PRISM 6.0 (GraphPad Software Inc., San Diego).

human mu receptor [3] = molecular target: T2, human mu receptor; assay: Calcium mobilization, mu opioid receptor; type: cell-based; conditions: percent over the baseline fluorescence, mean ± SEM of at least three experiments in duplicate, SEM
Protocol: CHO cells stably coexpressing the human NOP or kappa or the mu receptor and the C-terminally modified Gαqi5 and CHO cells coexpressing the delta receptor and the GαqG66Di5 protein were generated and cultured as described previously.[45],[46] Cells were maintained in Dulbecco’s modified Eagle’s medium/nutrient mixture F-12 (DEMEM/F-12) supplemented with 10% FBS, 100 U/mL penicillin and 100 μg/mL streptomycin, 100 μg/mL hygromicin B, and 200 μg/mL G418 and cultured at 37 °C in 5% CO2 humidified air. Cells were seeded at a density of 50,000 cells/well into 96-well black, clear-bottom plates. The following day, the cells were incubated with Hanks’ balanced salt solution (HBSS) supplemented with 2.5 mM probenecid, 3 μM of the calcium-sensitive fluorescent dye Fluo-4 AM, and 0.01% pluronic acid for 30 min at 37 °C. After that time, the loading solution was aspirated and 100 μL/well of HBSS supplemented with 20 mM HEPES, 2.5 mM probenecid, and 500 μM brilliant black was added. Serial dilutions were carried out in HBSS/HEPES (20 mM) buffer (containing 0.02% BSA fraction V). After placing both plates (cell culture and master plate) into the fluorometric imaging plate reader FlexStation II (Molecular Devices, Sunnyvale, CA), fluorescence changes were measured. On-line additions were carried out in a volume of 50 μL/well. To facilitate drug diffusion into the wells, the present studies were performed at 37 °C. Maximum change in fluorescence, expressed as percent over the baseline fluorescence, was used to determine agonist response.

human NOP receptor [4] = molecular target: T1, human NOP receptor; assay: Dynamic mass redistribution (DMR), NOP receptor; type: cell-based
Protocol: as §1, with “All the experiments were carried out at 37 °C.” left out
The pharmacological terminology adopted in this paper is consistent with IUPHAR recommendations.[59] All data are expressed as the mean ± standard error of the mean (SEM) of at least three experiments performed in duplicate. […]

[5] = system: NOP, mu, kappa, delta receptors; conditions: functional studies with human recombinant receptors; cited from earlier work
Text: Finally, the effects of [Dmt^1,5]N/OFQ(1-13)-NH2 at kappa and delta opioid receptors were investigated. […] Of note, the kappa potency of [Dmt^1,5]N/OFQ(1-13)-NH2 was similar to that shown at NOP and mu receptors. […] Moreover, similar results have b ...

Compound: C[C@@H](NC(=O)[C@@H](N)Cc1ccc(O)cc1)C(=O)N[C@@H](Cc1ccccc1)C(=O)NCC(=O)N[C@@H](Cc1ccc(O)cc1)C(=O)N1CCC[C@H]1C(=O)N[C@@H](CO)C(N)=O [Compound 2, dermorphin, reference compound]
- NOP pEC50 (CL95%) (human NOP receptor [1]; Table 1 series, FlexStation II): inactive
- NOP Emax ± S.E.M. (human NOP receptor [1]; Table 1 series, maximum change in fluorescence as percent over the baseline fluorescence): inactive
- NOP pEC50 (CL95%) (human NOP receptor [1]; Table 2 series): inactive
- NOP Emax ± S.E.M. (human NOP receptor [1]; Table 2 series, percent over the baseline fluorescence): inactive
- NOP pEC50 (CL95%) (human NOP receptor [1]; Table 3 series): inactive
- NOP Emax ± S.E.M. (human NOP receptor [1]; Table 3 series, percent over the baseline fluorescence): inactive
- pEC50_NOP (human NOP receptor [1]; molecular formula strings CSV, repeats calcium mobilization values of Tables 1-3): inactive
- mu Emax ± S.E.M. (human mu receptor [2]; DMR, SEM): 151 ± 16
- Emax (human mu receptor [3]; read-out: mu Emax ± S.E.M, Table 1 series): 380 ± 15%
- Emax (human mu receptor [3]; read-out: mu Emax ± S.E.M., Table 2 series): 306 ± 23%
- Emax (human mu receptor [3]; read-out: mu Emax ± S.E.M., Table 3 series): 359 ± 18%
- NOP pEC50 (CL95%) (human NOP receptor [4]; CHO cells expressing human NOP, label-free EnSight reader, 60 min, 37 °C, mean of at least three experiments in duplicate, CL95% in brackets): inactive
- NOP Emax ± S.E.M. (human NOP receptor [4]; maximum picometer (pm) modification (peak), mean ± SEM of at least three experiments in duplicate): inactive

Compound: CC(C)C[C@H](NC(=O)[C@H](CCCCN)NC(=O)[C@H](CCCNC(=N)N)NC(=O)[C@H](C)NC(=O)[C@H](CO)NC(=O)[C@H](CCCCN)NC(=O)[C@H](CCCNC(=N)N)NC(=O)[C@H](C)NC(=O)CNC(=O)[C@@H](NC(=O)[C@H](Cc1ccccc1)NC(=O)CNC(=O)CNC(=O)[C@@H](N)Cc1ccccc1)[C@@H](C)O)C(=O)N[C@@H](C)C(=O)N[C@@H](CC(N)=O)C(=O)N[C@@H](CCC(N)=O)C(=O)O [Compound 36, N/OFQ]
- mu pEC50 (CL95%) (human mu receptor [2]; DMR, CHO cells expressing human mu receptor, 60 min, 37 °C, mean of at least three experiments in duplicate, CL95% in brackets): inactive
- mu Emax ± S.E.M. (human mu receptor [2]; DMR): inactive
- pEC50_mu (human mu receptor [2]; molecular formula strings CSV, value of Compound_36 repeats the DMR result of Table 4): inactive

Compound: [Dmt^1]N/OFQ(1-13)-NH2
- rank order of potency [5]: NOP = mu > kappa > delta
